Results on 47 molecules are retold here after US8044198B2, “Sirtuin modulating compounds” (Sirtris Pharmaceuticals, Inc., priority 2005, dated 2011).

Like-named read-outs stand apart in the source and are kept apart here.

The target of the assay is T1, SIRT1 (Homo sapiens, UniProt Q96EB6).
T1 sequence (Q96EB6 1-747): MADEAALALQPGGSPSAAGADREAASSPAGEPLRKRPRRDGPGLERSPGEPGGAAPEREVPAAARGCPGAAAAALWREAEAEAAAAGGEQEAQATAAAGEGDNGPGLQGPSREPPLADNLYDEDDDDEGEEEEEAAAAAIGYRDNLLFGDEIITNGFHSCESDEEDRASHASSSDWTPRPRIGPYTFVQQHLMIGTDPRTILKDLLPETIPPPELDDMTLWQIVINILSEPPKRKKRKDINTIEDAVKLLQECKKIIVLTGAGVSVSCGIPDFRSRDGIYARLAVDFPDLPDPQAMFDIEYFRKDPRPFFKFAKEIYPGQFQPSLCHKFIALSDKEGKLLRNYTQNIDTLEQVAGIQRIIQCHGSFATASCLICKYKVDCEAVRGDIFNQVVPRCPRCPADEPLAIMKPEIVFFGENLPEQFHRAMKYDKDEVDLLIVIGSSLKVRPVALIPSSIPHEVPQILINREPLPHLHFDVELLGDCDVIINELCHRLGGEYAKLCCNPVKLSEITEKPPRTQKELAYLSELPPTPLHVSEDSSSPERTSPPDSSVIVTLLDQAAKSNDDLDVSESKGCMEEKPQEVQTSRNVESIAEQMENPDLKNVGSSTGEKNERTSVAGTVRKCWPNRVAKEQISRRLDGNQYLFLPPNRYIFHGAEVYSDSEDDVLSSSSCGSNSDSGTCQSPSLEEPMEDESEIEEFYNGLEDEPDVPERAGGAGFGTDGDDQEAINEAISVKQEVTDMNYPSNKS
The assay is described as follows: SIRT1 mass spectrometry (MS) based deacetylation assay. On FOLD ACT. MS: test concentration or dose not given here. Format: biochemical.

Setting [1] is: SIRT1 activation, mass spectrometry assay, read-out: ED50 MS ASSAY.
Where [2] appears, read: SIRT1 fold activation as determined by MS.
Setting [3] is: fold activation of SIRT1, mass spectrometry assay.
The mark [4] stands for this setting: Sirt1 activators, fold activation as determined by MS.
Setting [5] is: Sirt1 activators, mass spectrometry assay, read-out: ED50 MS ASSAY.
Setting [6] is: fold activation of SIRT1 as determined by MS.

Turning to `O=C(Nc1ccccc1-c1cn2c(CN3CCNCC3)csc2n1)c1ccc(-c2ccccc2)cc1` [Compound 708], the EC50 under setting [1] is less than 5 µM. Besides, the “FOLD ACT. MS” value under setting [2] is recorded as “A (A (Fold activation >250%))”.
As for `COc1ccc(S(=O)(=O)Nc2cccc(-c3nc4ccncc4s3)c2)cc1OC` [Compound 289], under setting [1], the EC50 fell in the range of 5 to 50 µM. For the same molecule, under setting [3], the “FOLD ACT. MS” value is “B (B (Fold Activation <250%))”.
The matching figures for `O=C(Nc1ccccc1-c1cn2c(CN3CCNCC3)csc2n1)c1cccs1` [Compound 446]: 5 to 50 µM and “B (B (Fold Activation <250%))”.
As to `COc1cc(C(=O)Nc2sccc2-c2nc3ccccc3s2)cc(OC)c1OC` [Compound 144], the EC50 under setting [1] was greater than 150 µM.
As for `COc1ccc(C(=O)Nc2ccccc2-c2cccs2)cc1OC` [Compound 335], the EC50 under setting [1] fell in the range of 5 to 50 µM. For the same molecule, under setting [3], the “FOLD ACT. MS” value is reported as “B (B (Fold Activation <250%))”.
Turning to `COc1cc(C(=O)Nc2ccccc2-c2nc3cccnc3[nH]2)ccc1CN1CCOCC1` [Compound 537], the “FOLD ACT. MS” value under setting [4] was “A (A (Fold activation >250%))”. Moreover, the EC50 under setting [5] is less than 5 µM.
In the case of `COc1ccc(C(=O)Nc2cccc(-c3nc4ncccc4s3)c2)c(OC)c1OC` [Compound 198], the EC50 under setting [1] is 5 to 50 µM. Also, the “FOLD ACT. MS” value under setting [6] was “B (B (Fold Activation <250%))”.
On to `COc1ccc(C(=O)Nc2ccc(-c3nc4cnccc4o3)s2)c(OC)c1` [Compound 422], for which the EC50 under setting [1] fell in the range of 5 to 50 µM. The “FOLD ACT. MS” value under setting [3] is reported as “B (B (Fold Activation <250%))”.
Consider `COc1ccc(C(=O)Nc2ccccc2-c2nc3ncccc3o2)cc1OC` [Compound 96], for which the EC50 under setting [1] was less than 5 µM. For the same molecule, the “FOLD ACT. MS” value under setting [6] was “B (B (Fold Activation <250%))”.
Regarding `COc1ccc(C(=O)Nc2ccccc2-c2cccs2)c(OC)c1` [Compound 334], the EC50 under setting [1] lay within 5 to 50 µM. For the same molecule, under setting [3], the “FOLD ACT. MS” value is reported as “B (B (Fold Activation <250%))”.
With `CN(C)c1cccc(C(=O)Nc2ccccc2-c2nc3cc(CN4CCNCC4)cnc3s2)c1` [Compound 593], the “FOLD ACT. MS” value under setting [4] is “A (A (Fold activation >250%))”. In addition, under setting [5], the EC50 is less than 5 µM.
On to `COc1cc(C)ccc1C(=O)Nc1ccc(-c2cc3cccnc3o2)cc1` [Compound 187], for which the EC50 under setting [1] is 5 to 50 µM. In addition, the “FOLD ACT. MS” value under setting [6] is listed as “B (B (Fold Activation <250%))”.
Molecule `COc1ccc(C(=O)Nc2cc(-c3nc4ccccc4o3)ccn2)cc1OC` [Compound 77] returned an EC50 of 5 to 50 µM. Further, under setting [6], the “FOLD ACT. MS” value was “B (B (Fold Activation <250%))”.
As for `O=C(Nc1ccccc1-c1cn2c(CN3CCNCC3)csc2n1)c1cc(-c2ccccc2)ncn1` [Compound 625], the “FOLD ACT. MS” value under setting [4] is reported as “A (A (Fold activation >250%))”. For the same molecule, the EC50 under setting [5] is less than 5 µM.
For `COc1ccc(OC(=O)Nc2ccccc2-c2nc3ccncc3s2)cc1` [Compound 597], under setting [5], the EC50 was less than 5 µM.
Consider `Cc1c(C(=O)Nc2ccccc2-c2cn3c(CN4CCNCC4)csc3n2)oc2ccccc12` [Compound 442], for which the EC50 under setting [1] is less than 5 µM. Moreover, under setting [3], the “FOLD ACT. MS” value is reported as “A (A (Fold activation >250%))”.
For `Cc1ccc(C(=O)Nc2ccccc2-c2nc3cc(CN4CCOCC4)cnc3s2)cc1C` [Compound 684], the EC50 under setting [1] fell in the range of 5 to 50 µM. Besides, under setting [2], the “FOLD ACT. MS” value is given as “B (B (Fold Activation <250%))”.
Take `COc1ccc(C(=O)Nc2ccc(-c3nc4ncccc4s3)cc2)c(OC)c1` [Compound 152]: the EC50 under setting [1] was greater than 150 µM.
As to `COc1ccc(C(=O)Nc2cccc(-c3nc4ccccc4[nH]3)c2)c(OC)c1` [Compound 211], the EC50 under setting [1] was less than 5 µM. Further, under setting [6], the “FOLD ACT. MS” value is on record as “B (B (Fold Activation <250%))”.
Take `COc1ccc(C(=O)Nc2cccc(-c3nc4ccccc4s3)c2)c(OC)c1` [Compound 124]: under setting [1], the EC50 was 5 to 50 µM. The “FOLD ACT. MS” value under setting [6] is “B (B (Fold Activation <250%))”.
Turning to `COc1ccc(C(=O)Nc2ccccc2-c2cn3cc(CN(C)C)sc3n2)cc1OC` [Compound 178], under setting [1], the EC50 lay within 5 to 50 µM. The “FOLD ACT. MS” value under setting [6] is “A (A (Fold activation >250%))”.
As for `COc1cc(OC)cc(C(=O)Nc2cccc(-c3nc4ccncc4o3)c2)c1` [Compound 451], the EC50 under setting [1] was in the range of 5 to 50 µM. Besides, the “FOLD ACT. MS” value under setting [3] is “B (B (Fold Activation <250%))”.
The like results for `COc1cc(OC)cc(C(=O)Nc2ccccc2-c2nc3ccncc3o2)c1` [Compound 456] were, in that order, less than 5 µM and “B (B (Fold Activation <250%))”.
On to `COc1cc(OC)cc(C(=O)Nc2ccccc2-c2nc3cc(CN(C)C)cnc3s2)c1` [Compound 722], for which, under setting [1], the EC50 was less than 5 µM. For the same molecule, the “FOLD ACT. MS” value under setting [2] is given as “A (A (Fold activation >250%))”.
Take `O=C(Nc1cccc(-c2nc3ccncc3s2)c1)c1cc(C(F)(F)F)ccc1C(F)(F)F` [Compound 248]: the EC50 under setting [1] was in the range of 5 to 50 µM. Further, the “FOLD ACT. MS” value under setting [3] was “B (B (Fold Activation <250%))”.
As to `COc1ccc(C(=O)Nc2cc(C(=O)N3CCNCC3)cc(-c3nc4ncccc4o3)c2)c(OC)c1` [Compound 139], under setting [1], the EC50 fell in the range of 5 to 50 µM. Also, under setting [6], the “FOLD ACT. MS” value is listed as “B (B (Fold Activation <250%))”.
With `O=C(Nc1ccccc1-c1nc2ccc(CN3CCNCC3)nc2s1)c1cnc2ccccc2n1` [Compound 690], under setting [1], the EC50 is less than 5 µM. Moreover, the “FOLD ACT. MS” value under setting [2] was “A (A (Fold activation >250%))”.
As for `COc1cc(C(=O)Nc2cccc(-c3nc4ncccc4o3)n2)cc(OC)c1OC` [Compound 57], the EC50 under setting [1] is 5 to 50 µM.
Consider `N#Cc1cccc(C(=O)Nc2ccccc2-c2nc3cc(CN4CCNCC4)cnc3s2)c1` [Compound 592], for which the “FOLD ACT. MS” value under setting [4] was “B (B (Fold Activation <250%))”. In addition, under setting [5], the EC50 is less than 5 µM.
As to `COc1ccc(C(=O)Nc2ccccc2-c2cnc3ccccc3c2)c(OC)c1` [Compound 413], the EC50 under setting [1] lay within 51 to 100 µM. Also, the “FOLD ACT. MS” value under setting [3] is recorded as “B (B (Fold Activation <250%))”.
With `O=C(NCc1ccc2c(c1)OCO2)c1cccc(-c2nc3ncccc3o2)c1` [Compound 103], the EC50 under setting [1] was greater than 150 µM.
Take `O=C(Nc1ccccc1-c1cn2c(CN3CCNCC3)csc2n1)c1ccc2ccccc2n1` [Compound 440]: the EC50 under setting [1] is less than 5 µM. Besides, the “FOLD ACT. MS” value under setting [3] is given as “A (A (Fold activation >250%))”.
The matching figures for `COc1ccc(C(=O)Nc2ncccc2-c2nc3ccccc3[nH]2)cc1OC` [Compound 276]: less than 5 µM and “B (B (Fold Activation <250%))”.
Take `COc1ccc(C(=O)Nc2cccc(-c3nc4ncccc4s3)c2)cc1OC` [Compound 201]: the EC50 under setting [1] fell in the range of 5 to 50 µM. Further, the “FOLD ACT. MS” value under setting [6] is “B (B (Fold Activation <250%))”.
The like results for `COc1ccc(C(=O)Nc2cccc(-c3nc4cccnc4[nH]3)c2)cc1OC` [Compound 185] were, in that order, less than 5 µM and “A (A (Fold activation >250%))”.
As to `COc1ccc(C(=O)Nc2ccc(-c3nc4cccnc4[nH]3)cc2)c(OC)c1` [Compound 151], the EC50 under setting [1] is greater than 150 µM.
Regarding `COc1cc(C(=O)Nc2ccccc2-c2nc3ccccn3c2CN(C)C)cc(OC)c1OC` [Compound 351], under setting [1], the EC50 is 5 to 50 µM. Under setting [3], the “FOLD ACT. MS” value was “B (B (Fold Activation <250%))”.
The like results for `Cc1cc(C(=O)Nc2ccccc2-c2cn3c(CN4CCNCC4)csc3n2)c(C)o1` [Compound 443] were, in that order, 5 to 50 µM and “A (A (Fold activation >250%))”.
The matching figures for `CN(C)c1cccc(C(=O)Nc2ccc(-c3nc4cnccc4o3)s2)c1` [Compound 427]: less than 5 µM and “B (B (Fold Activation <250%))”.
Turning to `CN(C)Cc1ccc2oc(-c3cccc(NC(=O)c4cccc(N(C)C)c4)c3)nc2n1` [Compound 165], the EC50 under setting [1] is greater than 150 µM. Besides, the “FOLD ACT. MS” value under setting [6] is recorded as “A (A (Fold activation >250%))”.
As for `COc1cccc(C(=O)Nc2ccccc2-c2nc3cccnc3[nH]2)c1` [Compound 532], under setting [4], the “FOLD ACT. MS” value is “B (B (Fold Activation <250%))”. Besides, the EC50 under setting [5] was less than 5 µM.
With `COC(=O)c1cccc(NC(=S)Nc2cccc(-c3nc4ccncc4s3)c2)c1` [Compound 473], the EC50 under setting [5] is less than 5 µM.
Turning to `COc1ccc(C(=O)Nc2ccccc2-c2nc3cnccc3s2)c(OC)c1OC` [Compound 411], the EC50 under setting [1] lay in the range of 5 to 50 µM. Also, the “FOLD ACT. MS” value under setting [3] is given as “B (B (Fold Activation <250%))”.
Regarding `COc1ccc(C(=O)Nc2cccc(-c3csc(C)n3)c2)cc1OC` [Compound 80], the EC50 under setting [1] was 5 to 50 µM. Besides, the “FOLD ACT. MS” value under setting [6] was “B (B (Fold Activation <250%))”.
Turning to `O=C(Nc1ccccc1-c1nc2cccnc2[nH]1)c1ccc(N2CCCCC2)cc1` [Compound 527], the “FOLD ACT. MS” value under setting [4] is “B (B (Fold Activation <250%))”. The EC50 under setting [5] is less than 5 µM.
The matching figures for `COc1cc(C(=O)Nc2ccc(-c3nc4ccncc4o3)s2)cc(OC)c1OC` [Compound 563]: “B (B (Fold Activation <250%))” and 5 to 50 µM.
The matching figures for `COc1cc(C(=O)Nc2ccccc2-c2nc3ncccc3o2)ccc1CN1CCOCC1` [Compound 631]: “B (B (Fold Activation <250%))” and less than 5 µM.
